One series deals with swine adipose tissue. The following applies: Mersmann, cited from earlier work; for lipolytic activity, in words: pigs.
The next series deals with bovine adipocytes. The series is described as follows: Lipolytic activity on isolated bovine adipocytes (FFA production), in relation to Isoprenaline. It is filed as cell-based. The following applies: for EC50 / Emax: Bos taurus, Adipocyte; for EC50: 1.5 h, read-out: Lipolytic activity: pEC50 (converted); for Emax: read-out: Lipolytic activity: i.a. (intrinsic activity). On the procedure:
Pieces of adipose tissue of approximately 600×600 μm, isolated from bovine animals or sheep, are provided in a teflon container containing: 3 ml of Krebs-Henseleit buffer having a pH of 7.4, 1% w/v of demineralized bovine serum albumin (BSA), 0.33 mg/ml of collagenase and 200 nM of adenosine. […] After 1 hour the suspension is filtered through nylon gauze (100 μm) and washed 2 times with Krebs-Henseleit buffer at room temperature. The incubations are carried out in duplicate, each incubation mixture consisting of 50 μl of the filtered cell suspension, 100 μl of the compound to be tested, 2% w/v of BSA and 50 μg/ml of Na2 S2 O5 (antioxidant) in 2.85 ml of Krebs-Henseleit buffer. Incubation: 90 minutes at 37° C. while shaking and gassing with carbogen. After the incubation, extraction is carried out with 3 ml of 2-propanol/n-hexane/1N-H2 SO4 (40:20:1) mixture. In the organic layer the produced free fatty acids (FFA) are determined. This determination is carried out as follows: 150 μl of sample are diluted with 1 ml of chloroform and then mixed with copper reagent (10% Cu(NO3)2 /2M triethanolamine/2N acetic acid=10:9:1); 0.2% w/v of sodium diethyldithiocarbamate is added. The yellow color is measured in a colorimeter and is a measure of the FFA-production. […] The intrinsic activity is the maximally achievable activity, also measured again with respect to Isoprenaline®.

The test system of a further series is right atrium. The series is described as follows: Heart activity: chronotropic effect on isolated right atria, in relation to Isoprenaline. It is filed as cell-based, male Wistar rats. The settings on record: for Emax: read-out: Chronotropic effect on the right atrium: i.a. (intrinsic activity); for EC50: read-out: Chronotropic effect on the right atrium: pEC50 (converted). As for the experimental part:
The heart activity has been determined in heart tissue of rats. It is known that rats are just as suitable for the determination of the heart activity (chronotropy) as the agricultural domestic animals mentioned hereinbefore.
The substances are tested with respect to their chronotropic effect on isolated right atria under a pre-load with 0.5 g, in an organ bath which contains the above Krebs buffer solution and is kept at 37° C. Dose-response curves with Isoprenaline® are determined. The results are again expressed as pEC50 values and, in relation to Isoprenaline®, as intrinsic activities ("i.a.").

Another series relates to ovine adipocytes. As to the kind of experiment: Lipolytic activity on isolated ovine adipocytes (FFA production), in relation to Isoprenaline. It is filed as cell-based, sheep. The text has this: It is known, for example, from a contribution by R. G. Vernon in "New perspectives in Adipose Tissue; structure, function and development", page 76, edited by Cryer and Van, Butterworths 1984, London, that there exists a good relationship between the lipolytic activity on the one hand and the activity as a repartitioning agent on the other hand. This means that a high value for the lipolytic activity is predictable for the increase of the muscle/fat ratio and for improving the growth and the feed efficiency of agricultural domestic animals. The influence of the tested compounds on the lipolysis of adipocytes is described in example I hereinafter. Bovine and ovine adipocytes, i.e. adipocytes of representative examples of agricultural domestic animals, have been used in this example.
Pieces of adipose tissue of approximately 600×600 μm, isolated from bovine animals or sheep, are provided in a teflon container containing: 3 ml of Krebs-Henseleit buffer having a pH of 7.4, 1% w/v of demineralized bovine serum albumin (BSA), 0.33 mg/ml of collagenase and 200 nM of adenosine. The adipocytes are isolated by shaking the container at 37° C. under carbogen gassing (approximately 5% CO2 in 95% O2). After 1 hour the suspension is filtered through nylon gauze (100 μm) and washed 2 times with Krebs-Henseleit buffer at room temperature. The incubations are carried out in duplicate, each incubation mixture consisting of 50 μl of the filtered cell suspension, 100 μl of the compound to be tested, 2% w/v of BSA and 50 μg/ml of Na2 S2 O5 (antioxidant) in 2.85 ml of Krebs-Henseleit buffer. Incubation: 90 minutes at 37° C. while shaking and gassing with carbogen. […] In the organic layer the produced free fatty acids (FFA) are determined. […] The yellow color is measured in a colorimeter and is a measure of the FFA-production. […] In addition to the fond pEC50 values, the values for the intrinsic activity ("i.a.") have been recorded in Table A hereinafter. The intrinsic activity is the maximally achievable activity, also measured again with respect to Isoprenaline®.

In the next series the test system is heart. The following applies: in the dosages required for the intended purpose; cited from earlier work.
A further series relates to heart rate. The settings on record: pig, in vivo; cited from earlier work.
Setting [1] is: compared with tested known substances / in the concentration required for the intended use.

Entries after “also recorded” stand apart in the source; their conditions may differ. Like-named read-outs stand apart in the source and are kept apart here.

For the compound `CC(C)(Cc1ccc(O)cc1)NCC(O)c1cc(O)cc(O)c1` (stereo not shown) [(1), 1-(3,5-dihydroxyphenyl)-2-[1,1-dimethyl-2-(4-hydroxyphenyl)ethylamino]ethanol], the “lipolytic activity, in words” value in the series with swine adipose tissue was “low lipolytic activity”. The “relative ED50 (lipolysis)” value in the series with swine adipose tissue (swine adipose tissue, relative to Fenoterol) is listed as “approximately ten times as high as that of Fenoterol®”. The EC50 in the series on bovine adipocytes is 3160 nM; with right atrium (Rattus norvegicus), 2510 nM; with ovine adipocytes (Ovis aries, Adipocyte, 1.5 h, 90 minutes at 37° C., pEC50 = negative logarithm of concentration at 50% of maximum effect) it was 501 nM. Further, the Emax with bovine adipocytes is 80%; in the series with right atrium (Rattus norvegicus) it was 40%; in the series on ovine adipocytes (Ovis aries, Adipocyte, maximally achievable activity with respect to Isoprenaline, read-out: Lipolytic activity: i.a. (intrinsic activity)) it was 140%. Further, in the series on bovine adipocytes (bovine adipocytes), the “lipolytic activity on bovine adipocytes, in words” value was “remarkably high lipolytic activity”. The “intrinsic lipolytic activity, comparison in words” value in the series on bovine adipocytes (versus Ractopamine and Clenbuterol) is “significantly higher than that of the phenylalkylamino derivatives Ractopamine® and Clenbuterol®”. Further, the “heart activity, in words” value is “considerably lower than that of the substances Ractopamine®, Fenoterol® and Clenbuterol®; also recorded: without a burdensome heart activity being experienced” with right atrium (setting [1]); “low heart effect” with right atrium (compared with tested known substances / in the concentration required for the intended use, listed as 1-(3,5-dihydroxyphenyl)-2-[1,1-dimethyl-2-(4-hydroxyphenyl)-ethylamino]ethanol). Further, the “lipolytic activity on ovine adipocytes, in words” value in the series on ovine adipocytes is given as “remarkably high lipolytic activity”.
Turning to `CC(C)(C)NCC(O)c1cc(Cl)c(N)c(Cl)c1` (stereo not shown) [Clenbuterol], the “side effects on the heart, in words” value in the series on heart is “serious side effects because in the dosages required for the intended purpose an undesired influence on the heart is exerted”. In the series on bovine adipocytes, the EC50 was 1580 nM and the Emax was found to be 30%. Also, in the series with right atrium (Rattus norvegicus), the Emax was determined as 40% and the EC50 is 50.1 nM.
As for `CC(Cc1ccc(O)cc1)NCC(O)c1cc(O)cc(O)c1` (stereo not shown) [Fenoterol], in the series on bovine adipocytes, the EC50 was 794 nM and the Emax turned out to be 80%. Also, in the series on right atrium (Rattus norvegicus), the Emax was 100% and the EC50 is 251 nM. The “heart activity, in words” value with right atrium (setting [1]) was “considerable heart activity in the concentration required for the intended purpose”.
For the compound `CC(CCc1ccc(O)cc1)NCC(O)c1ccc(O)cc1` (stereo not shown) [Ractopamine], in the series on heart, the “side effects on the heart, in words” value is “serious side effects because in the dosages required for the intended purpose an undesired influence on the heart is exerted”. The EC50 in the series on bovine adipocytes (bovine adipocytes, 90 minutes at 37° C., pEC50 = negative logarithm of concentration at 50% of maximum effect) was 2510 nM; in the series on right atrium (isolated rat right atria, pre-load 0.5 g, Krebs buffer, 37° C.) it was 31.6 nM. Besides, the Emax in the series on bovine adipocytes (bovine adipocytes, maximally achievable activity with respect to Isoprenaline) came out at 60%; with right atrium (isolated rat right atria, in relation to Isoprenaline), 100%. In addition, the “heart activity, in words” value with right atrium was “considerable heart activity in the required concentration”.
With `CC(C)(C)NCC(O)c1cc(O)cc(O)c1` (stereo not shown) [terbutaline], the “increasing heart rate, in words” value in the series with heart rate was “more active in increasing heart rate”. Also, the “lipolytic activity, in words” value in the series on swine adipose tissue is “less active in lipolysis”.
